Measured values as given in patent US20040259906A1, “Methods for controlling the proliferation of cells” (priority 2003, published 2004).
“Also recorded” adds a separate entry of the source.

How the values were obtained:
plants = settings: background statement; cited from earlier work
[1] = system: T-47D human breast ductal adenocarcinoma cells; assay: Cell growth and cell number of breast cancer cells; assay type: cell-based; settings: for cell growth arrest and cell death: summary statement, dose dependent
Description: (§1) In the following examples, all referenced cell lines were purchased from ATCC. T47D cells were maintained in Dulbecco's Modified Eagle medium (DMEM) (purchased from Life Technologies, Inc.) supplemented with 10% fetal calf serum (purchased from Life Technologies, Inc.), insulin (5 μg/ml), and antibiotics. CRL-5985, CRL-2632 and Raji cells were maintained in RPMI-1640 medium supplemented with 10% fetal calf serum (purchased from Life Technologies, Inc.) and antibiotics. Western blot analysis was performed by using phospho-serine 807/811-Rb, Rb, cyclin D1, cyclin D3, cdk-2, cdk-4, bcl-2, phospho-p38, bax, bak, PARP (cell signaling technology), MCL-1 (purchased from Biosource International) and beta-tubulin antibodies (purchased from Becton-Dickenson). Proteins were separated using an 8-10% SDS-polyacrylamide gel electrophoresis (SDS-PAGE), transferred to Immobilon-P membranes and immunoblotted with antibodies using the ECL detection system.
T-47D human breast ductal adenocarcinoma cells were treated with 12-oxo-PDA and measured at three and eight-day intervals.
(§2) Cell lines CRL-2632 (B-cell lymphoma cells), CRL-5985 (human lung adenocarcinoma cells) and T-47D (human breast ductal adenocarcinoma cells) were exposed to 12-OPDA over an eight-day period. Cell viability and cell growth were measured versus controls.
(§3) The effects on cell growth and number for T-47D human breast cancer cells and CRL-2632 human malignant diffuse large B-cell lymphoma cells following treatment with 12-oxo-PDA and jasmonic acid (“JA”) over a four-day period were measured.

[2] = system: CRL-5985 human lung adenocarcinoma cells; assay: Cell growth, cell number and morphology of lung cancer cells; assay type: cell-based; settings: for cell growth arrest and cell death: CRL-5985, summary statement, dose dependent
Description: as §1
CRL-5985 human lung adenocarcinoma cells were treated with 12-oxo-PDA and measured at three and eight-day intervals.
Lung cancer cells were treated with concentrations of 12-oxo-PDA ranging from 15 μM to 50 μM (versus an untreated control sample).
as §2

[3] = system: CRL-2632 human malignant diffuse large B-cell lymphoma cells; assay: Cell growth, cell number and morphology of lymphoma cells; assay type: cell-based; settings: for cell growth arrest and cell death: CRL-2632, summary statement, dose dependent
Description: as §1, §2, §3
(§4) CRL-2632 diffuse large B-cell lymphoma cells (and Burkitt's lymphoma cells (“Raji”)) were treated with 12-oxo-PDA and a synthetic coronatine analog (0.5 mM).

[4] = system: CRL-5985 (human lung adenocarcinoma cells); assay: Cell viability, trypan blue exclusion assay; assay type: cell-based; settings: CRL-5985, eight-day period, trypan blue (FIG. 5)
Description: as §1, §2

[5] = system: T-47D (human breast ductal adenocarcinoma cells); assay: Cell viability, trypan blue exclusion assay; assay type: cell-based; settings: eight-day period, trypan blue (FIG. 5)
Description: as §1, §2

[6] = system: CRL-2632 (B-cell lymphoma cells); assay: Cell viability, trypan blue exclusion assay; assay type: cell-based, human; settings: CRL-2632, eight-day period, trypan blue (FIG. 5)
Description: as §1, §2

cyclin D1 = assay: Western blot, cyclin D1 expression in T-47D cells; assay type: cell-based, human; settings: 20 μM, Western blot (FIG. 9)
Description: as §1
(§5) Hyperphosphorylation of Rb is a critical process and component for regulating the cell cycle. The phosphorylation of Rb enables cells to pass through particular cell cycle checkpoints and to enter the S phase of cell cycle. […] Similarly, expression of β-tubulin and phosphorylation of p38 MAPK were unaffected.

[7] = system: retinoblastoma tumor suppressor protein (Rb); assay: Western blot, Rb phosphorylation in T-47D cells; assay type: cell-based, human; settings: 20 μM
Description: as §1, §5

β-tubulin = assay: Western blot, β-tubulin expression in T-47D cells; assay type: cell-based, human; settings: 20 μM
Description: as §1, §5

p38 MAPK = assay: Western blot, p38 MAPK phosphorylation in T-47D cells; assay type: cell-based, human; settings: 20 μM
Description: as §1, §5

cyclin D1 mRNA = assay: Real-time RT-PCR in T-47D cells, cyclin D1; assay type: cell-based, human; settings: 25 uM, 48 hours, relative to untreated (ethanol) cells (FIG. 10)
Description: (§6) For real-time RT-PCR experiments T-47D cells were treated with ethanol (control) or with 25 uM 12-OPDA for 48 hours. Total RNA was isolated using TRIzol reagent (Invitrogen, Carlsbad, Calif.) followed by purification on RNeasy columns (Qiagen, Palo Alto, Calif.). For quantitative real-time RT-PCR analyses, total RNA from each sample was reverse transcribed with MuLV reverse transcriptase (Applied Biosystems, Foster City, Calif.) and random hexamer primers. The SYBR Green PCR Kit (Applied Biosystems) was used for quantitative real-time RT-PCR analysis. The primers for human ubuquitin, cyclin D1, p27 and c-fos were designed using Primer Express software (Applied Biosystems). 12-oxo-PDA was purchased from Larodon Fine Chemicals AB, Sweden. Jasmonic acid was purchased from Sigma-Aldrich Co. The indanoyl amino acid conjugate of coronatine (i.e., synthetic 6-azido-1-oxo-indanoyl isoleucine) was obtained from Dr. Wilhelm Boland (Max Planck Institute, Germany).
(§7) T-47D cells were exposed to 12-oxo-PDA in an effort to determine the effect of 12-oxo-PDA on gene expression. FIGS. 10, 11 and 12 show 12-OPDA mediated regulation of cyclin D1, p27 and c-fos mRNA levels, respectively, in T-47D cells compared to ethanol treatment alone. […] Thus, it appears that 12-oxo-PDA has a direct regulatory/inhibitory effect on the cyclin D1 and Rb protein. […]

p27 mRNA = assay: Real-time RT-PCR in T-47D cells, p27; assay type: cell-based, human; settings: 25 uM, 48 hours, vs ethanol (FIG. 11)
Description: as §6, §7

C-FOS mRNA = assay: Real-time RT-PCR in T-47D cells, c-fos; assay type: cell-based, human; settings: 25 uM, 48 hours, vs ethanol (FIG. 12)
Description: as §6, §7

[8] = system: CRL-2632 diffuse large B-cell lymphoma cells; assay: Apoptosis / PARP cleavage immunoblot in CRL-2632 cells; assay type: cell-based, human; settings: for growth arrest and apoptosis: CRL-2632, synthetic coronatine analog 0.5 mM (FIG. 15)
Description: as §1
Regulated cell apoptosis is essential for the development and maintenance of the immune system. The highly regulated anti-apoptotic MCL-1 protein appears to enhance short-term survival and functions in genotoxic cell death. […] Thus, deletion of MCL-1 during early lymphocyte differentiation increases apoptosis and arrests the development of B and T-lymphocytes. In this regard, one hallmark of apoptosis is activation of the caspases (e.g., caspase-3, caspase-6, and caspase-7). Activation of caspases leads to the cleavage of a […] PARP protein into an 89-kDa fragment.
Cells were incubated in the presence of 12-oxo-PDA (20 μM) for between one and six hours. The cells were then washed and lysed to extract total proteins. Thereafter, 30 μg extracts were resolved on 8% SDS-PAGE gel and probed with anti-PARP, anti-MCL-1, anti-bcl-2, anti-bax and anti-bak antibodies. […] Similarly, FIG. 13 illustrates the effects of 12-oxo-PDA treatment on apoptosis related proteins (i.e., Bcl-2, MCL-1, Bax and Bak proteins). […]

MCL-1 protein = assay: Immunoblot, MCL-1 expression in CRL-2632 cells; assay type: cell-based, human; settings: for expression of MCL-1 protein: CRL-2632, synthetic coronatine analog 0.5 mM (FIG. 15)
Description: as §1
(§8) Cells were incubated in the presence of 12-oxo-PDA (20 μM) for between one and six hours. The cells were then washed and lysed to extract total proteins. Thereafter, 30 μg extracts were resolved on 8% SDS-PAGE gel and probed with anti-PARP, anti-MCL-1, anti-bcl-2, anti-bax and anti-bak antibodies. […] Similarly, FIG. 13 illustrates the effects of 12-oxo-PDA treatment on apoptosis related proteins (i.e., Bcl-2, MCL-1, Bax and Bak proteins).
as §4

Bcl-2 = assay: Immunoblot, Bcl-2 expression in CRL-2632 cells; assay type: cell-based, human; settings: CRL-2632, 20 μM, one to six hours (FIG. 13)
Description: as §1, §8

Bax = assay: Immunoblot, Bax expression in CRL-2632 cells; assay type: cell-based, human; settings: CRL-2632, 20 μM, one to six hours (FIG. 13)
Description: as §1, §8

Bak = assay: Immunoblot, Bak expression in CRL-2632 cells; assay type: cell-based, human; settings: CRL-2632, 20 μM, one to six hours (FIG. 13)
Description: as §1, §8

[9] = system: Burkitt's lymphoma cells (Raji); assay: Growth arrest and apoptosis in Raji cells; assay type: cell-based; settings: synthetic coronatine analog 0.5 mM (FIG. 15)
Description: as §1, §4

MCL-1 = MCL-1 expression in Raji cells; assay type: cell-based; settings: synthetic coronatine analog 0.5 mM (FIG. 15)
Description: as §1, §4

tubulin = assay: Tubulin polymerization in CRL-2632 cells (soluble/insoluble fractions, Western blot); assay type: cell-based, human; settings: CRL-2632, 20 μM, one to six hours (FIG. 16)
Description: as §1
The increase in insoluble tubulin fractions indicates polymerization of tubulin in treated cells.

cancer cells = assay: Observations on treated cancer cells (Oil Red O staining, removal from culture medium); assay type: cell-based
Description: Rather, it appears that 12-oxo-PDA (and the related compounds) irreversibly interferes with the cellular mechanisms involved in cell growth, differentiation and the interaction between the cells with the extracellular matrix.

[10] = CRL-2632, four-day period (FIG. 8)

Question: For `CC[C@H]1C=C(C(=O)N[C@@]2(C(=O)O)C[C@@H]2CC)[C@H]2CCC(=O)[C@H]2C1` (stereo in doubt) [Coronatine], which “activation of plant stress signaling (volatile emission, tendril coiling)” value (plants) is on record?
Answer: can activate the stress signaling processes in plants

Question: Which results are given for `CC/C=C\C[C@@H]1C(=O)C=C[C@@H]1CCCCCCCC(=O)O` [Formula 12-oxo-PDA, 12-oxo-phytodienoic acid]?
Answer: decrease in cell number ([1]; eight-day period, vs untreated samples (FIG. 6)): three-fold; total cell number over treatment period ([1]; four-day period (FIG. 7)): decrease in total cell count; cell growth arrest and cell death [1]: arrests cell growth and induces cell death; cell growth and accumulation ([1]; three and eight-day intervals, vs untreated control (FIG. 1)): significant decrease in cell growth and accumulation; decrease in cell number ([2]; CRL-5985, eight-day period, vs untreated samples (FIG. 6)): five-fold; cell growth arrest and cell death [2]: arrests cell growth and induces cell death; morphological changes ([2]; CRL-5985, three and eight-day intervals (FIG. 2)): ceased three-dimensional growth patterns and became more diffuse and single layered; cell growth ([2]; CRL-5985, three and eight-day intervals, vs control (FIG. 2)): significant decrease in cell growth; cell growth, concentration dependence ([2]; lung cancer cells, 15 μM to 50 μM, eight days (FIG. 3)): decrease in cell growth proportional to the concentration; decrease in total cell number ([3]; CRL-2632, eight-day period, vs untreated samples (FIG. 6)): ten-fold; total cell number over treatment period [3, 10]: decrease in total cell count; cell growth arrest and cell death [3]: arrests cell growth and induces cell death; morphological changes ([3]; CRL-2632, two and eight-day intervals (FIG. 4)): morphological changes; cell viability [4]: significant inhibitory effect; cell viability [5]: significant inhibitory effect; cell viability [6]: particularly effective; cyclin D1 expression (cyclin D1): inhibition of cyclin D1 expression; total Rb ([7]; Western blot): remained unchanged; Rb phosphorylation at the 807 and 811 serine residues ([7]; phospho-specific Rb antibody (FIG. 9)): inhibition of the hyperphosphorylation; also recorded: dramatically inhibited; expression of β-tubulin (β-tubulin): unaffected; phosphorylation of p38 MAPK (p38 MAPK): unaffected; decrease in cyclin D1 mRNA levels (cyclin D1 mRNA): greater than twenty-fold; p27 mRNA levels (p27 mRNA): no significant changes; C-FOS mRNA levels (C-FOS mRNA): no significant changes; cleavage of PARP ([8]; CRL-2632, 20 μM, one to six hours, immunoblot): time-dependent cleavage of PARP; growth arrest and apoptosis [8]: arrest growth and induce apoptosis; expression of MCL-1 (MCL-1 protein; CRL-2632, 20 μM, one to six hours (FIG. 13)): inhibited the expression of MCL-1; expression of MCL-1 protein (MCL-1 protein): down-regulated expression of MCL-1; expression of Bcl-2 (Bcl-2): no effect; expression of Bax (Bax): no effect; expression of Bak (Bak): no effect; growth arrest and apoptosis [9]: arrest growth and induce apoptosis; expression of MCL-1 (MCL-1): down-regulated expression of MCL-1; tubulin polymerization (soluble vs insoluble tubulin fractions) (tubulin): induces tubulin polymerization; lipid accumulation in the cytoplasm (cancer cells; Oil Red O staining): resulted in lipid accumulation in the cytoplasm; cell growth after removal of compound from culture medium (cancer cells; washout): did not restore cell growth

Question: What does the source list for `CC/C=C\C[C@H]1C(=O)CC[C@@H]1CC(=O)O` [jasmonic acid, Jasmonic acid, reference compound]?
Answer: growth inhibition relative to untreated control ([1]; four-day period (FIG. 7)): some growth inhibition; total cell number over treatment period ([1]; four-day period (FIG. 7)): net increase in total tumor cell number; cell growth arrest and cell death [1]: fails to be as effective; cell growth arrest and cell death [2]: fails to be as effective; growth inhibition relative to untreated control [3, 10]: some growth inhibition; total cell number over treatment period [3, 10]: net increase in total tumor cell number; cell growth arrest and cell death [3]: fails to be as effective

Question: For `CC[C@H](C)[C@H](NC(=O)c1cc(N=[N+]=[N-])cc2c1CCC2=O)C(=O)OC` [synthetic coronatine], which “growth of CRL-2632 cells (growth ratio over ethanol control)” value ([3]; CRL-2632 (FIG. 14)) is on record?
Answer: inhibit growth

Question: And the “growth arrest and apoptosis” value [8]?
Answer: arrest growth and induce apoptosis

Question: What about the “expression of MCL-1 protein” value (MCL-1 protein) of the same compound?
Answer: down regulate the expression of the MCL-1 protein

Question: And the “growth arrest and apoptosis” value [9]?
Answer: arrest growth and induce apoptosis

Question: And the “expression of MCL-1” value (MCL-1)?
Answer: down-regulated expression of MCL-1

Question: What about the “activation of plant stress signaling (volatile emission, tendril coiling)” value (plants) of the same compound?
Answer: can induce volatile emissions and/or tendril coiling
